The target of test [1] is T1, recombinant human DHODH (Homo sapiens, UniProt Q02127).
T1 construct: made in house
Kind of test: DHODH enzymatic assay (kinetic, DCIP reduction). The class given is biochemical. On the procedure:
Enzyme assays were performed with 6 nM recombinant human DHODH prepared as described ([36]). The reaction mixture for these kinetic assays consisted of 1 mM DHO, 100 μM 2,3-dimethoxy-5-methyl-p-benzoquinone (Sigma–Aldrich #D9150), and 100 μM 2,6-dichlorophenolindophenol sodium salt (DCIP; Sigma–Aldrich #D1878) in enzyme buffer (50 mM Tris-HCl pH 8.0, 0.1% Triton X-100, 150 mM KCl). A stock solution of 20 mM DCIP was prepared in enzyme buffer and filtered through filter paper (20−25-μm pore size) just before use. Loss in absorbance by DCIP was measured at 595 nm at room temperature in a stepped time course (8 × 2 min, 8 × 3 min, 6 × 5 min). The observed decrease in absorbance over time was linear between 8 and 26 min. Therefore, for each concentration of inhibitor tested, a value for DHODH's Vmax was estimated by linear regression within this time frame. The IC50 is defined as the concentration of inhibitor that gives Vmax([I]) = Vmax(DMSO)/2.

In another test the test system is U2OS or ARN8 cells. Nature of the test: Uridine uptake assay ([3H]uridine, scintillation counting). Conditions: 5 μM. The test is classed as cell-based, human. The protocol:
100,000 (24-h assay) or 200,000 (15-min assay) U2OS or ARN8 cells were seeded per well in 6-well plates in 2 ml of fully supplemented culture medium as described above. 24 h postseeding, medium was removed, and cells were treated with the indicated compounds for either 15 min or 24 h in 2 ml of FBS-free medium supplemented with serum replacement 3 (Sigma–Aldrich #S2640). At the end of the treatment, an extra well of each treatment was harvested in 100 μl of 1× LDS (62.5 mM Tris-HCl, pH 6.8, 10% glycerol, 1% LDS) for quantification of protein levels to determine the level of cell death after 24 h for normalization with protein concentration determined by the Bio-Rad DC protein assay (Bio-Rad #5000111). [^3H]Uridine (PerkinElmer Life Sciences #NET367001MC) was prepared in serum replacement medium to a final emission of 3.65 μCi ml^−1 and added to cells for 10 min. Following 10 min, the cells were washed with four quick changes of 1 mM unlabeled uridine prepared in ice-cold transport buffer (20 mM Tris-HCl, pH 7.4, 130 mM NaCl, 3 mM K2HPO4, 1 mM MgCl2, 5 mM glucose, 2 mM CaCl2). The samples were then harvested in 100 μl of 10% SDS. 900 μl of Optiphase Supermix (PerkinElmer Life Sciences #1200-439) was added to each sample, and the cpm were measured using a 1450 MicroBeta JET for liquid scintillation (PerkinElmer Life Sciences/Wallac).

Test [2] deals with ARN8 cells. Kind of test: SRB assay in ARN8 cells with nucleotide supplementation. The test is classed as cell-based, human. Conditions: 72 h, 100 μM uridine, 1 mM DHO or 1 mM OA. On the procedure: Cells were seeded in a 96-well plate at a density of 500 cells/well (ARN8) in a volume of 100 μl of fully supplemented growth medium and incubated as described above for 24 h. SKNSH p53 WT pCMV neo cells were seeded at 7500 cells/well in 100 μl of fully supplemented growth medium and incubated as described above for 24 h. SKNSH ddp53 cells were seeded at a density of 6000 cells/well in 100 μl of fully supplemented growth medium and incubated as described above for 24 h. Cells were checked for adherence and treated with tenovins in DMSO supplemented with 100 μM uridine, 1 mM DHO, or 1 mM OA. The final percentage of DMSO per well was <0.2%. Cells were incubated for 72 h with compounds. Following incubation, medium was removed from the cells and replaced by 150 μl of 1× sterile PBS and 50 μl of 40% (w/v) TCA (Sigma–Aldrich #T9159) in distilled H2O and incubated at 4 °C for 1 h to fix the cells. The plate was then washed with three changes of water with all liquid allowed to drain from the plate. 50 μl of 0.4% (w/v) sulforhodamine B (Sigma–Aldrich #230162) with 1% (v/v) acetic acid (Sigma–Aldrich #320099) in H2O was added to each well and incubated for 30 min. Excess dye was washed out with three changes of 1% (v/v) acetic acid in H2O. The remaining dye was solubilized in 100 μl of 10 mM unbuffered Tris-base (Sigma–Aldrich #93362) per well, and absorbance was read at 490 nm on a spectrophotometer.

Test [3] has as its system ARN8 cells. Kind of test: Propidium iodide flow cytometry (cell cycle). The class given is cell-based, human. Particulars: 48 h; for Effect on cell cycle distribution / cell death: 10 μM tenovins 1 and 33 or 200 nM brequinar; for Effect of uridine or OA on the compound's cell cycle effect: 10 μM, 100 μM uridine or 1 mM OA, not with DHO. On the procedure:
ARN8 cells were seeded at 30,000 per well, respectively, in 6-well plates and incubated for 24 h. All compounds were diluted to 10× stocks in fully supplemented growth medium. Cells were incubated with the compounds for 48 h. Cell culture medium was removed and placed into Falcon tubes. Wells were washed twice with 1× PBS with the washes saved in the Falcon tubes to harvest floating dead cells. Cells remaining in the wells were trypsinized with 200 μl of 1× trypsin/EDTA (Sigma–Aldrich #T4174). Following detachment, fresh growth medium was added to each well, and the contents were removed and placed in the relevant tubes. Any remaining cells in the plate were then gathered by washing twice with 2 ml of 1× PBS with the washes saved and added to the relevant tubes. The tubes were centrifuged at 500 × g for 5 min. Cell pellets were washed twice with 1× PBS. The pellets were resuspended in 1 ml of 1× PBS and added dropwise to 3 ml of 99.9% ethanol while vortex mixing at high speed. Cells were then fixed at –20 °C for 24 h. Following fixation, cells were pelleted at 1390 × g for 5 min. The cells were washed three times with 2 ml of 1× PBS containing 3% FBS with centrifugation at 1390 × g between washes. Cells were resuspended in 0.5 ml of PBS containing 10 μg of propidium iodide (Invitrogen #P3566) and 50 μg of RNase A (Sigma–Aldrich #R4642) and incubated on ice in the dark for 10 min. Flow cytometry was performed using a BD Biosciences FACScan or FACSCalibur with 10,000 events counted within the gating region.
In general terms: Flow cytometry measures light scatter and fluorescence of single cells or particles in a stream.

In test [4] the test system is p53 transcriptional activity in ARN8 cells. Nature of the test: p53 transcriptional activation (CPRG) cell reporter assay. Particulars: 18 h, 100 μM uridine, 1 mM DHO or 1 mM OA. The class given is cell-based, human. The protocol: ARN8 cells were seeded in a 96-well plate at a density of 20,000 cells/well in a volume of 100 μl of fully supplemented growth medium. […] Subsequently, 50 μl of 1× reporter lysis buffer (Promega #E4030) was added to each well, and the plates were stored at –20 °C for at least 2 h.
(In general: Reporter assays use an easily measured gene product as a stand-in for the process of interest.)

In test [5] the test system is p53, hdm2 and p21 in ARN8 cells. Kind of test: Western blotting of p53 and p53 targets in ARN8 cells. The class given is cell-based, human. Particulars: 5 μM; for Treatment time at which p53 protein levels increased: blotted at 2, 4, 6 or 8 h; for Effect of OA and uridine on p53 protein and downstream signaling (hdm2, p21): 24 h, 100 μM uridine or 1 mM OA. On the procedure: 150,000 ARN8, HCT116 p53 WT, or HCT116 p53 KO cells were seeded on 6-well plates in 2 ml of fully supplemented medium as described above. […] A protein assay was conducted using the Bio-Rad DC protein analysis kit (Bio-Rad #5000111), and the protein levels were normalized between samples. […] The transfer was conducted using the Trans-Blot Turbo preset program for standard semidry transfer (30 min). All membranes were blocked in 5% milk (w/v) in PBS-T containing 0.1% Tween 20 (v/v) (Sigma–Aldrich P9416). All antibodies were made up in 5% milk (w/v) in PBS-T. All antibody incubations were either overnight at 4 °C or at room temperature for 1 h. […] All secondary antibodies were polyclonal rabbit anti-mouse antibodies conjugated to horseradish peroxidase (DAKO, Glostrup, Denmark #P0260) and diluted at concentrations of 1:2000 (v/v). […] All blots were normalized to their respective vehicle control and quantified using ImageLab where quantification was required (Bio-Rad version 5.2.1 build 11).
On the technique in general: Immunoblotting shows a protein as a band on a membrane.

In test [6] the test system is HCT116 p53 WT and p53 KO cells. Nature of the test: IncuCyte cell confluence measurements. The class given is cell-based, human. Conditions: HCT116 p53 WT or KO, 5 μM, confluence over 72 h. The protocol: ARN8 or HCT116 p53 WT or KO cells were seeded in a 96-well plate at a density of 4000 cells/well in a volume of 100 μl. […] The medium of the assigned wells was replaced with 100 μl of fresh medium containing a 5 μM concentration of the corresponding Tenovins or DMSO control and placed in an IncuCyte S3 system located inside a CO2 incubator.

The target in test [7] is T1, recombinant human DHODH. Kind of test: Thermal shift assay using intrinsic FMN fluorescence. The test is classed as binding. Conditions: 200 μM compound, 5 μM DHODH. On the procedure: 5 μM recombinant human DHODH prepared as described ([36]) was used in this assay. The assay relied upon the intrinsic fluorescence of the embedded flavin mononucleotide (FMN) within the DHODH as a proxy for unfolding of DHODH across a temperature range, much in the same manner as the thermal shift assay using SYPRO Orange ([37]). A PCR machine with a filter set with an excitation range of 475–500 nm and an emission range of 520–590 nm was used for this experiment. 5 μM DHODH was prepared with 200 μM compound with a final concentration of 0.5% DMSO in each sample in buffer consisting of 50 mM HEPES and 150 mM NaCl. The final assay volume was 10 μl. The samples were heated across a temperature range with the fluorescence emission from FMN monitored at each temperature.

[8] abbreviates: 6 nM recombinant human DHODH, average of three independent repeats, read-out: DHODH inhibition (enzyme assay), IC50.

Read-outs that look alike come from different tables or passages of the source.

T1 sequence (Q02127 whole entry): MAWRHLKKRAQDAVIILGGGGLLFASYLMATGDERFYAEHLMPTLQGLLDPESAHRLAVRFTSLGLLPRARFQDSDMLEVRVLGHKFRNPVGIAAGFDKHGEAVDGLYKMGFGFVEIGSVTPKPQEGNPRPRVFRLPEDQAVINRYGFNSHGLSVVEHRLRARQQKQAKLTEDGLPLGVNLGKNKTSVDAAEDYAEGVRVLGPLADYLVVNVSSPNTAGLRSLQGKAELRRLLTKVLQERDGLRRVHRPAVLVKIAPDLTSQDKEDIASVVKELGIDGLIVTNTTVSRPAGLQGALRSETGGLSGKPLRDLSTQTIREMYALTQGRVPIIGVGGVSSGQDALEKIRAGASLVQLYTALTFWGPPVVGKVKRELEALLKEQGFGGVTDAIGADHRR

In the case of `CC(=O)Nc1ccc(NC(=S)NC(=O)c2ccc(C(C)(C)C)cc2)cc1` [Tenovin 1], the IC50 – broadly, the concentration that gives 50% inhibition – was 0.113 µM at recombinant human DHODH [1] (setting [8]) and roughly 0.113 µM on recombinant human DHODH [1] (enzyme assay, read-out: DHODH IC50). Further, in the test on U2OS or ARN8 cells, the “Inhibition of uridine uptake after 15 min” value (“Inhibition of uridine uptake” for short) is on record as “unable to alter uridine uptake”. The “Effect of supplementation on tumor cell growth inhibition (SRB)” value in the test on ARN8 cells [2] is recorded as “reduced upon supplementation with uridine or OA”. The “Effect on cell cycle distribution / cell death” value in the test with ARN8 cells [3] was “increase in cell death”. In the test with ARN8 cells [3], the “Effect of uridine or OA on the compound's cell cycle effect” value was “effect on the cell cycle largely prevented”.
`CN(C)CCCCC(=O)Nc1ccc(NC(=S)NC(=O)c2ccc(C(C)(C)C)cc2)cc1` [Tenovin 6]: the IC50 on recombinant human DHODH [1] (setting [8]) is 0.5 µM. Besides, the “Effect of supplementation on induction of p53 transcriptional activity” value in test [4] is “partially ablated”. Further, the “Inhibition of uridine uptake” value with U2OS or ARN8 cells is given as “able to inhibit uridine uptake”. In test [5], the “Treatment time at which p53 protein levels increased” value stood at 2 h; the “Effect of OA and uridine on p53 protein and downstream signaling (hdm2, p21)” value was “ablation of p53 downstream signaling”. The “Effect on cell growth in p53 KO versus p53 WT cells” value in test [6] is reported as “effects on cell growth ablated in the p53 KO cells”. Moreover, in the test with ARN8 cells [2], the “Effect of supplementation on tumor cell growth inhibition (SRB)” value is recorded as “no rescue of cell viability”.
As for `CN(C)CCCCC(=O)Nc1ccc(NC(=O)NC(=O)c2ccc(C(C)(C)C)cc2)cc1` [Tenovin 33], the IC50 on recombinant human DHODH [1] (setting [8]) was greater than 20 µM. For the same compound, the “Inhibition of DHODH enzyme activity (in words)” value at recombinant human DHODH [1] (biochemical assay) is listed as “incapable of inhibiting DHODH enzyme activity”. The “Stabilization of DHODH in thermal shift assay” value on recombinant human DHODH [7] is “nor was it able to stabilize DHODH in a thermal shift assay”. Also, the “Effect of supplementation on induction of p53 transcriptional activity” value in test [4] was “completely ablated”. Also, the “Inhibition of uridine uptake” value in the test on U2OS or ARN8 cells is on record as “able to inhibit uridine uptake”. In addition, in test [5], the “Treatment time at which p53 protein levels increased” value stood at 8 h; the “Effect of OA and uridine on p53 protein and downstream signaling (hdm2, p21)” value is “ablation of p53 downstream signaling”. In addition, in the test on ARN8 cells [2], the “Effect of supplementation on tumor cell growth inhibition (SRB)” value is given as “reduced upon supplementation with uridine or OA”. Moreover, in the test with ARN8 cells [3], the “Effect on cell cycle distribution / cell death” value is “increase in the percentage of cells in S-phase” and the “Effect of uridine or OA on the compound's cell cycle effect” value is “effect on the cell cycle largely prevented”.
Consider `Cc1c(-c2ccc(-c3ccccc3F)cc2)nc2ccc(F)cc2c1C(=O)O` [brequinar, reference compound], for which the “Effect on cell cycle distribution / cell death” value in the test with ARN8 cells [3] is recorded as “increase in the percentage of cells in S-phase”.

The values above are taken from publication PMC7939445, “Exploitation of dihydroorotate dehydrogenase (DHODH) and p53 activation as therapeutic targets: A case study in polypharmacology” (The Journal of Biological Chemistry, 2021).
